Test results published in PMC11345829, “Discovery of Potent Isoquinolinequinone N-Oxides to Overcome Cancer Multidrug Resistance” (Journal of Medicinal Chemistry, 2024).

How the values were obtained:
A549 = assay: NCI60 five-dose GI50 (NCI data); type: cell-based; details: Homo sapiens, SI Table S20
From the text: (§1) The concentration−response curve generated enables the determination of three criteria, GI50 (drug concentration at which 50% of cell growth is inhibited), total growth inhibition (TGI) and LC50 (drug concentration at which 50% of tumor cells are killed) which can be used to compare effectiveness against any compound tested in the screen since its inception.
(§2) S2.1 NCI Screening Assay Experimental details
NCI Screening Assay Experimental: Cancer cell growth assays (NCI60 screening) 5,6 […]
Unbound dye was […]
removed with five washes of 1% acetic acid, and the plates were allowed to air dry. The dye was then resolubilised in Tris buffer, and the colorimetric absorbance was measured (515 nm). Growth inhibition was measured relative to the response generated from proliferating cells cultured under identical conditions for 48 h. Data from one-dose experiments pertains to the percentage growth at […]
Five-dose study: Serial 5 × 10-fold dilution from an initial DMSO stock solution was performed, prior to incubation at each individual concentration (10 nM, 100 nM, 1 μM, 10 μM and 100 μM). Using seven absorbance measurements (time zero (Tz), control growth (C), and test growth in the presence of drug at the five concentration levels (Ti)), the percentage growth was calculated at each of the drug concentrations levels. […] Three dose response parameters were calculated for each experimental agent. […]

NCI-H322 = assay: NCI60 five-dose GI50 (NCI data); type: cell-based; details: Homo sapiens, SI Table S20
From the text: as §1, §2
NCI Screening Assay Experimental: Cancer cell growth assays (NCI60 screening) 5,6 One-dose study: Tested compounds were initially solubilised in DMSO, diluted into RPMI 1640 and 5% fetal bovine serum/L-glutamine, and added to 96-well plates containing cell lines previously cultured for 24 h. After 48 h incubation, the media were removed, and the cells were fixed and stained with sulforhodamine B to determine overall percent growth/ total protein content. Unbound dye was removed with five washes of 1% acetic acid, and the plates were allowed to air dry. The dye was then resolubilised in Tris buffer, and the colorimetric absorbance was measured (515 nm). Growth inhibition was measured relative to the response generated from proliferating cells cultured under identical conditions for 48 h. Data from one-dose experiments pertains to the percentage growth at […]
Five-dose study: Serial 5 × 10-fold dilution from an initial DMSO stock solution was performed, prior to incubation at each individual concentration (10 nM, 100 nM, 1 μM, 10 μM and 100 μM). Using seven absorbance measurements (time zero (Tz), control growth (C), and test growth in the presence of drug at the five concentration levels (Ti)), the percentage growth was calculated at each of the drug concentrations levels. Percentage growth inhibition was calculated as: [(Ti − Tz)/(C − Tz)] × 100 for concentrations for which Ti ≥ Tz, [(Ti − Tz)/Tz] × 100 for concentrations for which Ti < Tz. Three dose response parameters were calculated for each experimental agent. […]
was calculated from [(Ti − Tz)/(C − Tz)] × 100 = 50, which is the drug concentration resulting in a 50% reduction in the net protein increase (as measured by sulforhodamine B staining) in control cells during the drug incubation. The drug concentration resulting in total growth inhibition (TGI) was calculated from Ti = Tz. The LC50 (concentration of drug resulting in a 50% reduction in the measured protein at the end of the drug treatment as compared to that at the beginning) indicating a net loss of cells following treatment was calculated from [(Ti − Tz)/Tz] × 100 = −50. Values were calculated for each of these three parameters if the level of activity was reached; however, if the effect was not reached or was exceeded, the value for that parameter was expressed as greater or less than the maximum or minimum concentration tested.

NCI-H460 cells = assay: ROS accumulation, CM-H2DCFDA flow cytometry; type: cell-based, human; details: 6 h; 0.7, 1 and 5 μM; concentration dependent
From the text: To uncover the mechanisms of action of 25, we analyzed the cellular accumulation of ROS by flow cytometry, using a fluorescent marker of ROS, 5-(and-6)-chloromethyl-2′,7′-dichlorodihydrofluorescein diacetate acetyl ester (CM-H2DCFDA). […] Importantly, this effect was concentration dependent.
Figure 6 Effect of the compound 25 on ROS accumulation in NCI-H460 cells. […] Results are presented as mean fluorescence values, normalized to the blank. Data are expressed as mean ± SEM from at least 3 independent experiments.
To study the effect of compound 25 on ROS levels, 5-(and-6)-chloromethyl-2′,7′-dichlorodihydrofluorescein diacetate, acetyl ester (CM-H2DCFDA; Invitrogen) analysis by flow cytometry was performed in the drug-sensitive cells. NCI-H460 cells (1.5 × 10^5/mL) were plated in 6-well plates for 24 h. […] Harvested cells were subsequently washed twice in phosphate-buffered saline (PBS) and the CM-H2DCFDA fluorescence was analyzed in a BD AccuriTM flow cytometer (BD Biosciences, San Jose, California, USA). Mean fluorescence intensity was calculated after correction for autofluorescence.

## COC(=O)c1c2c(c[n+]([O-])c1C)C(=O)C=C(NCc1ccccc1)C2=O [Compound 25]
A549
  GI50: 232 nM
NCI-H322
  GI50: 174 nM
NCI-H460 cells
  ROS accumulation (fluorescence intensity): statistically significant increase on fluorescence intensity
